pIC50: −log10 of the molar value.
Key:
[1] = target: T1, IDO1 (Homo sapiens, UniProt P14902); experiment: IDO1 Human Whole blood Assay; assay type: cell-based; design: Human whole blood was drawn in sodium heparin coated tubes from healthy internal donors; from tissue; host or cells: human whole blood from healthy donors, stimulated with LPS and IFNγ; details: LPS and IFNγ stimulated, 18 h, read-out: Human Whole Blood Potency, IC50
Procedure: IDO1Human Whole blood Assay
Compounds to be tested were serially diluted in ten 3-fold steps in DMSO starting from 10 mM. 3 μL of compound dilutions or DMSO alone were then dispensed from the dilution plate into a polypropylene 96-well assay plate containing 97 μL of RPMI medium using an Echo 555 acoustic liquid handler (Labcyte). LPS and IFNγ was prepared in RPMI medium to a 10× of final conc. (1000 ng/mL), final concentration is 100 ng/mL.
Human whole blood was drawn in sodium heparin coated tubes from healthy internal donors. 240 μL of blood was transferred to each of the wells of a v-bottom 96 well plate. 30 μL of compound was transferred from intermediate dilution plate, and incubated for 15 min. 30 μL from stimulants was then transferred to blood and mixed thoroughly. Plate was covered with breathable membrane and incubated at 37° C. for overnight (18 h).
On day 2, isotope labeled standard solutions of kynurenine and tryptophan was made in water at 10× concentration and 30 μL was added to the blood at 3 μM final concentration. The assay plates were centrifuged at 300×G for 10 min with no brake to separate plasma from red blood cells. 60 μL of plasma samples was removed without disturbing red blood cells. Plasma was diluted with RPMI in 1:1 ratio and proteins were precipitated out with two volumes of Acetonitrile. The plates were centrifuged at 4000×G for 60 min. 20 μL of supernatant was carefully transferred to a 384 well plate containing 40 μL of 0.1% formic acid in water and analyzed by LC/MS/MS.
LC/MS/MS analyses were performed using Thermo Fisher's LX4-TSQ Quantum Ultra system. This system consists of four Agilent binary high-performance liquid chromatography (HPLC) pumps and a TSQ Quantum Ultra triple quadrupole MS/MS instrument. For each sample, 5 μL were injected onto an Atlantis T3 column (2.1 mm×150 mm, 3 μm particle size) from Waters. The mobile phase gradient pumped at 0.8 mL/min was used to elute the analytes from the column at 25° C. The elution started at 0% B increasing linearly to 25% B at 6.5 min, holding at 25% for 1 min, re-equilibrating to 10 min. Mobile phase A consisted of 0.1% formic acid in water. Mobile phase B consisted of 0.1% of formic acid in acetonitrile. Data were acquired in positive mode using a HESI interface. The operational parameters for the TSQ Quantum Ultra instrument were a spray voltage of 4000 V, capillary temperature of 380° C., vaporizer temperature 400° C., shealth gas 60 arbitrary units, Aux gas 20 arbitrary units, tube lens 85 and collision gas 1.2 mTorr. SRM chromatograms of kynurenine (Q1: 209.2>Q3:94.0) and internal standard (Q1: 215.3>Q3:98.2) were collected for 90 sec. The peak area was integrated by Xcalibur Quan software. The ratios between the kynurenine generated in the reaction and 2D6-Kynurenine spiked-in internal standard were used to generate percentage inhibition and IC50 values. Compounds were titrated and IC50's were calculated by 4 parameter sigmoidal curve fitting formula.

[2] = target: T1, IDO1; experiment: IDO1 Cellular Assay in HeLa Cells Stimulated with IFNγ; assay type: cell-based; details: read-out: HeLa Cell Potency, IC50

T1 sequence (P14902 whole entry): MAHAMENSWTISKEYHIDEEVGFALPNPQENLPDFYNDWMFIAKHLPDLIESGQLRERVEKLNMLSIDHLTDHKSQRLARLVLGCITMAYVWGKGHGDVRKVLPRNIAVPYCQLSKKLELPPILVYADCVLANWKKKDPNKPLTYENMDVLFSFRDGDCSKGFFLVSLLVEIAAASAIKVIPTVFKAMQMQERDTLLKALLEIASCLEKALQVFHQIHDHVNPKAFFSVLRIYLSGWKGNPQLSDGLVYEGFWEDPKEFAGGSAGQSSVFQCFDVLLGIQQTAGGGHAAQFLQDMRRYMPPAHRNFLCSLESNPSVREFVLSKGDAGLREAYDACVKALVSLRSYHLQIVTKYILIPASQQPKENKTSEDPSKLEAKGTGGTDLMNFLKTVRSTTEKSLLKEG

Row | Structure (SMILES) | pIC50 [1] | pIC50 [2]
1 | Cc1cccc(N2CCN(C(=O)Cn3nc(C(=O)N4CCC(CO)CC4)c4c3CCC4)CC2)c1C [Example 101, 1-[4-(2,3-dimethylphenyl)piperazin-1-yl]-2-{3-[4-(hydroxymethyl)piperidine-1-carbonyl]-5,6-dihydrocyclopenta[c]pyrazol-1(4H)-yl}ethan-1-one] | 6.15 | 8.21
2 | CNC(=O)C1CCN(C(=O)c2nn(CC(=O)N3CCN(c4cccc(C)c4C)CC3)c3c2CCC3)CC1 [Example 136, 1-(1-{2-[4-(2,3-dimethylphenyl)piperazin-1-yl]-2-oxoethyl}-1,4,5,6-tetrahydrocyclopenta[c]pyrazole-3-carbonyl)-N-methylpiperidine-4-carboxamide] |  | 7.67
3 | Cc1cc(N2CCN(C(=O)Cn3nc(C(=O)N4C[C@@H](C)O[C@@H](C)C4)c4c3CCC4)CC2)cc(C)c1Cl [Example 40, 1-[4-(4-chloro-3,5-dimethylphenyl)piperazin-1-yl]-2-{3-[(2R,6S)-2,6-dimethylmorpholine-4-carbonyl]-5,6-dihydrocyclopenta[c]pyrazol-1(4H)-yl}ethan-1-one] |  | 6.65
4 | Cc1cccc(N2CCN(C(=O)Cn3nc(C(=O)N4CC[C@H](CO)[C@H](F)C4)c4c3CCC4)CC2)c1C [Example 122, 1-[4-(2,3-dimethylphenyl)piperazin-1-yl]-2-{3-[(3S,4R)-3-fluoro-4-(hydroxymethyl)piperidine-1-carbonyl]-5,6-dihydrocyclopenta[c]pyrazol-1(4H)-yl}ethan-1-one] |  | 7.99
5 | CC(=O)NC1CCN(C(=O)c2nn(CC(=O)N3CCN(c4cccc(C)c4C)CC3)c3c2CCC3)C1 (stereo not shown) [Example 194, N-[1-(1-{2-[4-(2,3-dimethylphenyl)piperazin-1-yl]-2-oxoethyl}-1,4,5,6-tetrahydrocyclopenta[c]pyrazole-3-carbonyl)pyrrolidin-3-yl]acetamide] |  | 7.40
6 | Cc1cccc(N2CCN(C(=O)Cn3nc(C(=O)N4CC5CCC4CC5O)c4c3CCC4)CC2)c1C (stereo not shown) [Example 152, 1-[4-(2,3-dimethylphenyl)piperazin-1-yl]-2-[3-(5-hydroxy-2-azabicyclo[2.2.2]octane-2-carbonyl)-5,6-dihydrocyclopenta[c]pyrazol-1(4H)-yl]ethan-1-one] |  | 7.47
7 | Cc1cccc(N2CCN(C(=O)Cn3nc(C(=O)N4CCN(C5CC5)CC4)c4c3CCC4)CC2)c1C [Example 123, 2-[3-(4-cyclopropylpiperazine-1-carbonyl)-5,6-dihydrocyclopenta[c]pyrazol-1(4H)-yl]-1-[4-(2,3-dimethylphenyl)piperazin-1-yl]ethan-1-one] |  | 8.00
8 | Cc1cccc(N2CCN(C(=O)Cn3nc(C(=O)N4CCC(NS(N)(=O)=O)CC4)c4c3C[C@H]3C[C@@H]43)CC2)c1C [Example 222, N-{1-[(3bR,4aR)-1-{2-[4-(2,3-dimethylphenyl)piperazin-1-yl]-2-oxoethyl}-3b,4,4a,5-tetrahydro-1H-cyclopropa[3,4]cyclopenta[1,2-c]pyrazole-3-carbonyl]piperidin-4-yl}sulfuric diamide] |  | 8.21
9 | C[C@@H]1CN(C(=O)c2nn(CC(=O)N3CCN(c4cccc(Cl)c4Cl)CC3)c3c2CCC3)C[C@H](C)O1 [Example 69, 1-[4-(2,3-dichlorophenyl)piperazin-1-yl]-2-{3-[(2R,6S)-2,6-dimethylmorpholine-4-carbonyl]-5,6-dihydrocyclopenta[c]pyrazol-1(4H)-yl}ethan-1-one] |  | 7.92
10 | C[C@@H]1CN(C(=O)c2nn(CC(=O)N3CCN(c4ccc(Cl)cc4Cl)CC3)c3c2CCC3)C[C@H](C)O1 [Example 67, 1-[4-(2,4-dichlorophenyl)piperazin-1-yl]-2-{3-[(2R,6S)-2,6-dimethylmorpholine-4-carbonyl]-5,6-dihydrocyclopenta[c]pyrazol-1(4H)-yl}ethan-1-one] |  | 6.88
11 | Cc1cccc(N2CCN(C(=O)Cn3nc(C(=O)N4CCC5(CC4)COCC5O)c4c3CCC4)CC2)c1C (stereo not shown) [Example 182, 1-[4-(2,3-dimethylphenyl)piperazin-1-yl]-2-[3-(4-hydroxy-2-oxa-8-azaspiro[4.5]decane-8-carbonyl)-5,6-dihydrocyclopenta[c]pyrazol-1(4H)-yl]ethan-1-one] |  | 8.20
12 | Cc1cccc(N2CCN(C(=O)Cn3nc(C(=O)N4CC[C@@H](N5CCC(O)CC5)[C@@H](F)C4)c4c3CC(F)(F)CC4)CC2)c1C (stereo in doubt) [Example 24, 2-[6,6-difluoro-3-[rac-(3S,4R)-3-fluoro-4-(4-hydroxy-1-piperidyl)piperidine-1-carbonyl]-5,7-dihydro-4H-indazol-1-yl]-1-[4-(2,3-dimethylphenyl)piperazin-1-yl]ethanone] |  | 6.71

Results, then the compound that gave them:

Row | pIC50 [1] | pIC50 [2] | Structure (SMILES)
13 | 5.61 | 7.50 | Cc1cccc(N2CCN(C(=O)Cn3nc(C(=O)N4CC[C@@H](O)[C@@H](F)C4)c4c3CC(F)C4)CC2)c1C (single isomer, unassigned) [Example 418]
14 | 6.10 | 8.95 | Cc1cccc(N2CCN(C(=O)Cn3nc(C(=O)N4CC[C@@H](C(C)(C)O)C4)c4c3C[C@H]3C[C@@H]43)CC2)c1C [Example 230, 1-[4-(2,3-dimethylphenyl)piperazin-1-yl]-2-{(3bR,4aR)-3-[(3R)-3-(2-hydroxypropan-2-yl)pyrrolidine-1-carbonyl]-3b,4,4a,5-tetrahydro-1H-cyclopropa[3,4]cyclopenta[1,2-c]pyrazol-1-yl}ethan-1-one]
15 | 6.74 | 8.45 | Cc1c(Cl)cccc1N1CCN(C(=O)Cn2nc(C(=O)N3CCN(C(=O)CO)CC3)c3c2CCCC3)CC1 [Example 405, 1-(4-(3-chloro-2-methylphenyl)piperazin-1-yl)-2-(3-(4-(2-hydroxyacetyl)piperazine-1-carbonyl)-4,5,6,7-tetrahydro-1H-indazol-1-yl)ethanone]
16 | 5.91 | 7.95 | Cc1cccc(N2CCN(C(=O)Cn3nc(C(=O)N4CCC5(CO)CC4C5)c4c3CCC4)CC2)c1C [Example 297, 1-[4-(2,3-dimethylphenyl)piperazin-1-yl]-2-{3-[5-(hydroxymethyl)-2-azabicyclo[3.1.1]heptane-2-carbonyl]-5,6-dihydrocyclopenta[c]pyrazol-1(4H)-yl}ethan-1-one]
17 |  | 8.54 | CC(=O)NC1CCN(C(=O)c2nn(CC(=O)N3CCN(c4cccc(Cl)c4C)CC3)c3c2CC(F)CC3)CC1 (stereo not shown) [Example 367, N-(1-(1-(2-(4-(3-chloro-2-methylphenyl)piperazin-1-yl)-2-oxoethyl)-5-fluoro-4,5,6,7-tetrahydro-1H-indazole-3-carbonyl)piperidin-4-yl)acetamide]
18 |  | 8.72 | Cc1c(N2CCN(C(=O)Cn3nc(C(=O)N4CCO[C@@H](CO)C4)c4c3C[C@H]3C[C@@H]43)CC2)cccc1C(F)(F)F [Example 343, 2-((3bR,4aR)-3-((R)-2-(hydroxymethyl)morpholine-4-carbonyl)-3b,4,4a,5-tetrahydro-1H-cyclopropa [3,4]cyclopenta[1,2-c]pyrazol-1-yl)-1-(4-(2-methyl-3-(trifluoromethyl)phenyl)piperazin-1-yl)ethanone]
19 |  | 8.19 | Cc1cccc(N2CCN(C(=O)Cn3nc(C(=O)N4CCC5NC(=O)OCC5C4)c4c3C[C@H]3C[C@@H]43)CC2)c1C (stereo partly drawn) [Example 239, 6-[(3bR,4aR)-1-{2-[4-(2,3-dimethylphenyl)piperazin-1-yl]-2-oxoethyl}-3b,4,4a,5-tetahydro-1H-cyclopropa[3,4]cyclopenta[1,2-c]pyrazole-3-carbonyl]octahydro-2H-pyrido[4,3-d][1,3]oxazin-2-one]
20 |  | 8.67 | Cc1c(N2CCN(C(=O)Cn3nc(C(=O)N4CCO[C@H](CO)C4)c4c3C[C@H]3C[C@@H]43)CC2)cccc1C(F)(F)F [Example 342, 2-((3bR,4aR)-3-((S)-2-(hydroxymethyl)morpholine-4-carbonyl)-3b,4,4a,5-tetrahydro-1H-cyclopropa[3,4]cyclopenta[1,2-c]pyrazol-1-yl)-1-(4-(2-methyl-3-(trifluoromethyl)phenyl)piperazin-1-yl)ethanone]

From patent US12264134B2 (Merck Sharp & Dohme LLC, priority 2018, dated 2025)
